# Source: US5298621A, “Oligopeptide derivatives of ipoxantine endowed with immunomodulating activity and pharmaceutical compositions containing same” (Sigma-Tau Industrie Farmaceutiche Riunite S.p.A., priority 1990, dated 1994)
# Tested on: responders (thymus of C57B1/6) induced by stimulators (spleen of DBA/2)
# Assay: "In vitro-ex vivo" mixed lymphocyte reaction (MLR)
# Set-up: species or system mice
# Details: 25 mg/kg/day i.p. from day -5 to day -1
# Experimental: Test 8 Assessment of the "in vitro-ex vivo" effect of ST 733, ST 754 and ST 789 on the mixed lymphocyte reaction (MLR).
# Male DBA/2 mice (Charles River, Italy) aged 8 weeks were used as "stimulators" (4 animals per group); male inbred C57 B1/6 mice (Charles River, Italy) were used as "responders" (4 animals per group).
# The compounds were administered i.p. from day -5 to day -1 (thymus excision of "responders" at day 0) 25 mg/kg/day.
# The experimental procedure that was used is described by Hudson, L. and Hay, F. C., Practical Immunology, Blackwell Scientific Publication 290 (1980).
smiles,measurement,setting,value
"N=C(N)NCCC[C@H](NC(=O)OCCCCCn1cnc2c(=O)[nH]cnc21)C(=O)O [ST 789, N-5-(ipoxantin-9-yl) pentyloxycarbonylarginine, reference compound]",Body weight,,22.1 ± 0.5 g
same,Spleen weight,,82.7 ± 3.2 mg
same,Thymus weight,,63.0 ± 7.9 mg
same,^3 H-TdR Incorporation (cpm ± S.E.) Non stimulated responders,,132.0 cpm
same,^3 H-TdR Incorporation (cpm ± S.E.) Stimulated responders,,9256 cpm
same,Thymocytes No. (× 10^7),pooled samples,14.7 × 10^7
